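48-hour exposure; five concentrations; linearly interpolated endpoints. At the GI50, growth is halved. The concentration for full growth arrest is given as TGI.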 Bounds are passed on as bounds.

Common to all, as to assay: inhibition of tumour cell growth, NCI panel, 48 h
Assay [1] deals with A549 NSCLC.
In assay [2] the test system is RPMI-8226 leukemia.
Assay [3] has as its system NCI-H522 lung.
For assay [4], the system named is COLO 205 colon.
Assay [5] relates to U251 CNS.
The test system of assay [6] is SK-MEL-2 melanoma.
The test system of assay [7] is SK-MEL-5 melanoma.
Assay [8] relates to CAKI-1 renal.
Assay [9] deals with MALME-3M melanoma.
The subject of assay [10] is RXF 393 renal.

In the case of `Cc1ccc(C)c2c1C(O)(C#Cc1ccccc1)c1ccccc1C2(O)C#Cc1ccccc1` (stereo not drawn), the GI50 in assay [1] was 3.12 µM; in [2], 1.83 µM; in assay [3], 4.55 µM; in assay [4], 2.01 µM; in assay [5], 2.76 µM; in assay [6], 2.98 µM. In addition, the results for the GI50 in [7] and in assay [8] were 1.63 µM and 2.38 µM, respectively. Besides, the TGI in assay [1] was more than 100 µM; in assay [3] it was more than 100 µM; in assay [4], 6.48 µM; in assay [5], more than 100 µM; in assay [6] it was 11.5 µM; in assay [7], 4.99 µM. In addition, the TGI in [8] is more than 30.7 µM.
For `CC(C)CC(NC(=O)c1cccc(O)c1O)C(=O)NCc1cc(CNC(=O)C(CC(C)C)NC(=O)c2cccc(O)c2O)cc(CNC(=O)C(CC(C)C)NC(=O)c2cccc(O)c2O)c1` (stereo not drawn), the TGI in assay [1] was 50.3 µM; in [9], 39.5 µM; in assay [2], 21.8 µM; in assay [3], 16.8 µM; in [4], 34.3 µM; in assay [5], 29.5 µM. Besides, the TGI in assay [6] is 29 µM; in [7], 30.4 µM; in assay [8] it was more than 100 µM.
On to `COC(=O)c1c2c(c[n+]([O-])c1C)C(=O)C=CC2=O`, for which the GI50 in assay [1] was 16.1 µM; in assay [9] it was 1.25 µM; in assay [2], 3.9 µM; in assay [3], 1.72 µM; in assay [4] it was 1.85 µM; in [5], 2.15 µM. For the same compound, the results for the GI50 in assay [6], in assay [7] and in [8] were 2.08 µM, 1.74 µM and 1.7 µM, respectively. Further, the TGI was 40.1 µM in [1]; 2.51 µM in assay [9]; 26.6 µM in assay [2]; 4.5 µM in [3]; 3.93 µM in assay [4]; 5.22 µM in assay [5]. Further, the TGI came out at 4.5 µM in [6], 3.15 µM in [7] and 3.16 µM in assay [8].
As to `C=C(C)C(=O)O[C@H]1C[C@@]23O[C@@H]2CCC(=C[C@H]2OC(=O)C(=C)[C@H]12)COC3O` (stereo partly drawn), the TGI in [1] was more than 100 µM; in assay [2] it was 63 µM; in [3], 30.7 µM; in assay [4] it was 56.8 µM; in assay [10] it was 89.6 µM; in assay [5], more than 100 µM. The TGI in assay [6], in assay [7] and in assay [8] was more than 100 µM in each case.
As to `COC(=O)[C@@H](C)C[C@H](Cc1ccccc1)NC(=O)c1csc(CC[C@H](C(C)C)N(C)C(=O)[C@@H](NC(=O)[C@H]2CCCCN2C)C(C)C)n1`, the GI50 in assay [1] was 1.27 µM; in assay [2], 0.135 µM; in assay [3], 0.0656 µM; in assay [4] it was 0.19 µM; in assay [5] it was 0.398 µM; in assay [6], 0.149 µM. The GI50 in [7] was 0.0981 µM. For the same compound, the TGI in [1] was more than 33.3 µM; in [2], more than 33.3 µM; in assay [3], 0.301 µM; in assay [4], 1.53 µM; in assay [5], more than 33.3 µM; in assay [6], more than 33.3 µM. In assay [7], the TGI is 0.747 µM.
`O=C1c2ccccc2C(Br)(Br)c2ccccc21`: the TGI in [1], in assay [9], in assay [3], in [4], in [10] and in assay [5] was more than 31.6 µM each time. Further, the TGI in [6] and in [7] was more than 31.6 µM in each case.
For `C#Cc1cccc(N2C(=O)CCC2=O)c1`, the TGI in assay [1] was found to be 42.7 µM; in assay [9], 28.2 µM; in assay [2], 15.9 µM; in assay [3], 11.9 µM; in assay [4], 24.8 µM; in assay [5], 33 µM. In addition, the values for the TGI in assay [6], in [7] and in [8] were 36.6 µM, 37.1 µM and 29 µM, respectively.
Regarding `CC1CCC2(CC1)NN=c1s/c(=C\c3ccc(O)cc3)c(=O)n1N2` (stereo not drawn), the TGI in [1], in assay [2], in [3], in [4], in assay [10] and in assay [5] was more than 100 µM each time. For the same compound, the TGI in [7] is more than 100 µM.
As to `c1cc(N(CCn2cccn2)CCn2cccn2)cc(N(CCn2cccn2)CCn2cccn2)c1`, the TGI in assay [1], in assay [2], in assay [3], in assay [4], in assay [10] and in assay [5] was more than 100 µM throughout. Also, the TGI in [6], in [7] and in assay [8] was more than 100 µM throughout.
In the case of `Oc1[nH]c2ccccc2c1N=Nc1ccccn1`, the TGI is more than 100 µM in [1]; more than 100 µM in assay [2]; 78.8 µM in [3]; more than 100 µM in assay [4]; more than 100 µM in [10]; 46.6 µM in [5]. In addition, the TGI in assay [6], in [7] and in [8] was more than 100 µM throughout.
For the compound `COC(=O)/C=C1/CCC(C(=O)OC)N1` (stereo not drawn), the TGI in [1], in assay [2], in assay [4], in [10], in assay [5] and in [6] was more than 100 µM each time. Further, the TGI in assay [7] and in assay [8] was more than 100 µM throughout.
In the case of `COc1ccc2c(c1)C(=O)c1c-2n(CCCN=[N+]=[N-])c(=O)c2cc(OC)c(OC)cc12`, the GI50 is 33 µM in assay [1]; 66.4 µM in [9]; 0.868 µM in assay [2]; 43.8 µM in assay [3]; more than 100 µM in assay [4]; 24.2 µM in assay [5]. Besides, the values for the GI50 in [6], in assay [7] and in assay [8] were more than 100 µM, more than 100 µM and 3.82 µM, respectively. For the same compound, the TGI is more than 100 µM in assay [1]; more than 100 µM in assay [9]; 5.58 µM in assay [2]; more than 100 µM in assay [3]; more than 100 µM in assay [4]; more than 100 µM in [5]. The TGI is more than 100 µM in assay [6], more than 100 µM in [7] and 24.6 µM in assay [8].

The values above are taken from PubChem BioAssay (NCI).
